Data on ten molecules can be found in ChEMBL document CHEMBL1201862, “PubChem BioAssay data set” (2004).

The source made the active and inactive calls.

Assay [1] addresses T1, Ubiquitin-conjugating enzyme E2 N (Homo sapiens, UniProt P61088).
T1 sequence (P61088 whole entry): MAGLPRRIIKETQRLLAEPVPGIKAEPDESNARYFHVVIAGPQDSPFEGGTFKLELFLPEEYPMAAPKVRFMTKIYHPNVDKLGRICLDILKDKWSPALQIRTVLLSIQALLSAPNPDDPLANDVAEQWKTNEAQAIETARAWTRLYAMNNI
The format is functional.

In assay [2] the target is T1, Ubiquitin-conjugating enzyme E2 N. The format is functional. The source holds these as a separate data set.
Another assay addresses T2, Bcl-2-related protein A1 (Mus musculus, UniProt Q07440).
T2 sequence (Q07440 whole entry): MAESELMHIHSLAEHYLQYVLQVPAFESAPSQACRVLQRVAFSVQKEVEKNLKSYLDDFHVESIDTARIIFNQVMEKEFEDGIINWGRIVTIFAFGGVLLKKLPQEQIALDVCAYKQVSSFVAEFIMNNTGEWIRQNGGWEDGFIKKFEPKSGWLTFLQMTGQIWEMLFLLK
The format is functional.

The test system of assay [3] is HEK293. Briefly: cells. The format is functional, cell-based. The settings on record: Homo sapiens.
Assay [4] concerns HEK293. Description: inhibition of NOD1-driven NF-kB reporter – cell-based, luminescence, uHTS, primary screen (AID 1578). The format is functional. The settings on record: Homo sapiens.
In assay [5] the target is Nucleotide-binding oligomerization domain-containing protein 2 (Homo sapiens, UniProt Q9HC29). Briefly: inhibition of NOD2-driven NF-kB reporter – cell-based, luminescence, uHTS, HEK293 (AID 1566). The format is functional.
The subject of assay [6] is HEK293. Description: cells. The format is functional, cell-based. Particulars: Homo sapiens. This is another data set of the same source.
The target in a further assay is Beta-galactosidase (Escherichia coli, UniProt Q8VNN2). Briefly: detection-enzyme interference by beta-gal modulators – biochemical, E. coli enzyme, set 3, artefact control for CCR6 antagonist project, dose response (AID 504712). The format is functional.
The test system of assay [7] is HEK293. Briefly: cells. Particulars: Homo sapiens. The format is functional, cell-based. The source holds these as a separate data set.
Assay [8] concerns HEK293. Briefly: NOD2 signaling inhibitors in MDP-stimulated cells, cell-based, uHTS, luminescence (AID 2001). The format is functional. The settings on record: Homo sapiens.
For the next assay, the target named is Hexokinase (Trypanosoma brucei, UniProt Q38C41). Description: Confirmation assay for inhibitors of Trypanosoma brucei hexokinase 1-Analogue-first series. [Related pubchem assays (depositor defined):AID1430, AID1632, AID2516, AID2560, AID2579, AID2600, AID449725, AID492951]. The format is functional.
Another assay addresses Troponin, cardiac muscle (Homo sapiens, UniProt P19429+P45379+P63316). Briefly: Fluorescence-based biochemical high throughput dose response assay for activators of the calcium sensitivity of cardiac Regulated Thin Filaments (RTF). [Related pubchem assays (depositor defined):AID493008, AID493018, AID504382, AID504383]. The format is protein-complex assay.
Assay [9] deals with T3, Coagulation factor XII (Homo sapiens, UniProt P00748).
T3 sequence (P00748 whole entry): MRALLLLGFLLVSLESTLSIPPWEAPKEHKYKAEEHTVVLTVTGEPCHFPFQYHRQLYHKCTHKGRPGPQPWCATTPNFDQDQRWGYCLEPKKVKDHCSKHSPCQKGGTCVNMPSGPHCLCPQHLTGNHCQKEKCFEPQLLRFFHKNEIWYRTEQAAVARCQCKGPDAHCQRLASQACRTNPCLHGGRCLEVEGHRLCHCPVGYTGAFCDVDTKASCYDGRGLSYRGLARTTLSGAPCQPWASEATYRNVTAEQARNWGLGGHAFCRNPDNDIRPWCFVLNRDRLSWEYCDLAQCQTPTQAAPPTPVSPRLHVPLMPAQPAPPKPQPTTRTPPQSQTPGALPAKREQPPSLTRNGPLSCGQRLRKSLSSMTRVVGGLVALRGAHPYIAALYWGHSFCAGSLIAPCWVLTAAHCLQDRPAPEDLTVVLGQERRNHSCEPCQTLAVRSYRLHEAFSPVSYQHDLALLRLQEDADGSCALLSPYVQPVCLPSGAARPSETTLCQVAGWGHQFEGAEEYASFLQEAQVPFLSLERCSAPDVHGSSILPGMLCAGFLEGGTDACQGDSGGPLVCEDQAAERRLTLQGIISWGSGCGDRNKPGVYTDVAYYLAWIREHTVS
The format is functional.

Assay [10] concerns the target T4, Mannose-6-phosphate isomerase (Homo sapiens, UniProt P34949).
T4 sequence (P34949 whole entry): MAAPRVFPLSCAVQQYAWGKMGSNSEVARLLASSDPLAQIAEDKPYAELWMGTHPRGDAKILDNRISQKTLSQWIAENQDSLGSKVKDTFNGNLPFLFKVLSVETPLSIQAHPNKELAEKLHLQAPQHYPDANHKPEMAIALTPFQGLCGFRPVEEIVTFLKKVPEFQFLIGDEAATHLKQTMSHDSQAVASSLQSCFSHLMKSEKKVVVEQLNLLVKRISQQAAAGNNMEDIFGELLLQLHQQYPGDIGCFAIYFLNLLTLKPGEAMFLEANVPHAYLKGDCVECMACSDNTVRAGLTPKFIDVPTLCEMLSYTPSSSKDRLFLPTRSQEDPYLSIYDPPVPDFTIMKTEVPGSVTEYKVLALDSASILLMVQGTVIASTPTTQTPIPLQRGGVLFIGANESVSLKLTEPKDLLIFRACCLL
Briefly: MPI inhibition at elevated mannose 6-phosphate – biochemical, fluorescence intensity, high mannose 6-phosphate, primary screen (AID 1220).

Assay [11] concerns the target T3, Coagulation factor XII. Description: activated coagulation factor XII inhibitor potency, concentration-effect curve, cell-free (AID 716). The format is functional.
The target of a further assay is Protein Rev (Human immunodeficiency virus type 1 group M subtype B (isolate HXB2)(HIV-1), UniProt P04618). Description: blockers of HIV Rev/RRE RNA complex – biochemical, fluorescence polarization, HIV-1, dose response (AID 434976). Also noted: species or system Human immunodeficiency virus 1. (Polarisation of emitted light reports the rotation of a fluorescent probe.)

Assay [12] has as its target E3 ubiquitin-protein ligase XIAP (Homo sapiens, UniProt P98170). Description: Counter Screen using XIAP-Bir3 for Chemical Antagonists of Bir1/2 domains of IAP-family anti-apoptotic proteins. [Related pubchem assays (depositor defined):AID1018, AID1449, AID1514, AID1638, AID1749, AID1750, AID488957, AID488963]. A general note: A counterscreen serves to expose hits that act by an unwanted route or on another target.

For assay [13], the target named is Female germline-specific tumor suppressor gld-1 (Caenorhabditis elegans, UniProt Q17339). Briefly: blockers of GLD-1/TGE RNA complex formation – biochemical, fluorescence polarization, C. elegans, dose response (AID 2802).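 Note: fluorescence polarization of labeled TGE RNA bound by purified gld-1 protein.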
The target of another assay is T5, Protein RecA (Mycobacterium tuberculosis, UniProt P9WHJ3).
T5 sequence (P9WHJ3 whole entry): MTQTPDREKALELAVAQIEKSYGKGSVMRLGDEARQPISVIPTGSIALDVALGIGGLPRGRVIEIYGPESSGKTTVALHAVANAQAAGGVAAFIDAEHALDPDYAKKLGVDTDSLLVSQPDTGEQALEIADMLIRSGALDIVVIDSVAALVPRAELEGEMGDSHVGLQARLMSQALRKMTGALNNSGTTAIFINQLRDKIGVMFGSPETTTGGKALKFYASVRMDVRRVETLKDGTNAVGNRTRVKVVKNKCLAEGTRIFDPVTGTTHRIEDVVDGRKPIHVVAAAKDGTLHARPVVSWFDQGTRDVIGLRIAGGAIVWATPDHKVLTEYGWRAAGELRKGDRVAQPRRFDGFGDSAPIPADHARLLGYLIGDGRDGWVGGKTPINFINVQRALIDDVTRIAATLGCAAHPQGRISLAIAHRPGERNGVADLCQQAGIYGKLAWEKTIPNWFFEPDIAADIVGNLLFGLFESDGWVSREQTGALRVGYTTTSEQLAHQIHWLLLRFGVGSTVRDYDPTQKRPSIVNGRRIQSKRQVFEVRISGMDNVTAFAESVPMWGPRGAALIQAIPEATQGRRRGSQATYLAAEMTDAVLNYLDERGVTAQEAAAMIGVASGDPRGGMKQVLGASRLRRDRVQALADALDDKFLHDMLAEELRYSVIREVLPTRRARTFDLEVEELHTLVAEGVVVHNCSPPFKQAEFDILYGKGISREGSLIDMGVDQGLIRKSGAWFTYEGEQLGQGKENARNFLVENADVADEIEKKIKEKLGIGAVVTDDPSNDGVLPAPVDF
Briefly: Fluorescence Cell-Free Homogeneous Dose Retest to Identify Inhibitors of RecA-Intein Splicing Activity. [Related pubchem assays (depositor defined):AID2097, AID2223, AID489010, AID492950]. The format is functional.

For assay [14], the target named is T6, Replicative DNA helicase DnaB (Mycobacterium tuberculosis, UniProt P9WMR3).
T6 sequence (P9WMR3 whole entry): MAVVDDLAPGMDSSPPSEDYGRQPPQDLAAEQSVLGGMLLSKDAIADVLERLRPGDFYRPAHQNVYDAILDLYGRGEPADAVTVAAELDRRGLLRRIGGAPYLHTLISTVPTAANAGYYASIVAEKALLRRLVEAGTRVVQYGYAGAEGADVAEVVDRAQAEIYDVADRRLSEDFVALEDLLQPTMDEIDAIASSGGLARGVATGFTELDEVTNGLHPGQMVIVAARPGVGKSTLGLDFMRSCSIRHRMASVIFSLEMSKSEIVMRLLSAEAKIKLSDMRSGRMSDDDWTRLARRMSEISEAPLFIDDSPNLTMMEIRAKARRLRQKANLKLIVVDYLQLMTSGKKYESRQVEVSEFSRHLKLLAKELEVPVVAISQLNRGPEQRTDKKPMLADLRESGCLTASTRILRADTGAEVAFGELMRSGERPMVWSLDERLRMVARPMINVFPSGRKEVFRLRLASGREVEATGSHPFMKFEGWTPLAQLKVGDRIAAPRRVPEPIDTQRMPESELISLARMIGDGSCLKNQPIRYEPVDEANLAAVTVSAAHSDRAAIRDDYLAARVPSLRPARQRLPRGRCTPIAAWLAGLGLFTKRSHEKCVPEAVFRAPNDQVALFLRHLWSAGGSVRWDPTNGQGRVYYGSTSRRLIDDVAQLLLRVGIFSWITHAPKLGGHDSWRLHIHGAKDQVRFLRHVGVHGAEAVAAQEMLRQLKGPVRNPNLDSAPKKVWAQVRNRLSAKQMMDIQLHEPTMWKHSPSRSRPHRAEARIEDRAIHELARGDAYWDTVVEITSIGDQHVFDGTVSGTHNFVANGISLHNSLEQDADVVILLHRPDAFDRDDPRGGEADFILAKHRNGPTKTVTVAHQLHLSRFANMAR
Briefly: DnaB intein splicing inhibitors, dose response, biochemical, cell-free fluorescence (AID 449749). The format is functional.

As to `O=C(CCNC(=O)Cn1ccc2ccccc2c1=O)NCCN1CCN(c2cccc(Cl)c2)CC1`, the IC50 was 8.08 µM (active) in assay [1], 4.45 µM (active) in [2] and > 20 µM (inactive) on Bcl-2-related protein A1.
As for `O=C(NC(=S)N1CCN(Cc2ccc3c(c2)OCO3)CC1)c1cccc(Br)c1`, the IC50 is 16.1 µM (active) in the assay on HEK293 [3]; > 20 µM (inactive) in the assay with HEK293 [6]; > 66.6 µM (inactive) at Beta-galactosidase; > 20 µM (inactive) with HEK293 [7]; 6.54 µM (inactive) with HEK293 [8]. Further, the EC50 in the assay on HEK293 [4] was 7.03 µM (active); in assay [5], > 20 µM (inactive).
For `COc1cc2c(cc1OC)C(c1ccc(-c3cc(Cl)ccc3Cl)o1)=NCC2`, the IC50 in the assay on HEK293 [3] was 5.36 µM (active); with HEK293 [6], > 20 µM (inactive); in the assay on HEK293 [7], > 20 µM (inactive); in the assay with HEK293 [8] it was 2.75 µM (active). In addition, the EC50 (in the assay on HEK293 [4]; in assay [5]) was > 20 µM (inactive) each time.
`COc1ccc(C(=O)Nc2ccc(Cl)cc2C(=O)O)cc1`: the IC50 at Hexokinase is > 25 µM (inactive).
For the molecule `COc1ccc(S(=O)(=O)N2CN(Cc3ccco3)c3nc4ccccc4nc32)cc1`, the EC50 on Troponin, cardiac muscle is > 71.5 µM (inactive).
`CC12CCC(C(=O)NC(c3ccccc3)c3ccccc3)(OC1=O)C2(C)C` (stereo not drawn): the IC50 on Coagulation factor XII [9] is > 50 µM (inactive).
Regarding `CN1CC2(Cc3c1ccc1ccccc31)C(=O)OC(C)(C)OC2=O`, the half-inhibitory concentration (IC50) in [10] is > 50 µM (not active); on Coagulation factor XII [11], > 50 µM (inactive).
Turning to `COc1ccc(CNc2nc(NCc3ccc(OC)cc3)n(S(C)(=O)=O)n2)cc1`, the IC50 on Coagulation factor XII [11] was > 50 µM (inactive).
Regarding `COCCOC(=O)c1sc(=S)n(CCOC)c1N`, the IC50 against Protein Rev was 11.1 µM (not active); in assay [12], 0.699 µM (active); in assay [13] it was 5.31 µM (active).
For `CC(=O)Nc1ccc(OC(=O)c2ccco2)cc1`, the EC50 on Protein RecA was 12.1 µM (active). The IC50 on Coagulation factor XII [9] was > 50 µM (inactive). Further, in assay [14], the AC50 is 93.9 µM (active).

In general, IC50 refers to the concentration that gives 50% inhibition. The term EC50 denotes the midpoint of the concentration-response curve. The term AC50 denotes the concentration at which the activity in the assay is half-maximal.
